Experimental data: US7276512B2, “Benzo[a]pyrano[3,2-h]acridin-7-one compounds” (Les Laboratoires Servier, priority 2003, dated 2007)

Legend:
[1] = system: C38 adenocarcinoma of the colon; assay: Anti-tumour activity with respect to C38 adenocarcinoma of the colon; assay type: in vivo; details: i.v. on days 12 and 22, s.c. C38 in B6D2F1 mice
Protocol: Anti-Tumour Activity with Respect to C38 Adenocarcinoma of the Colon
Tumour fragments of C38 adenocarcinoma of the colon weighing approximately 30 mg were implanted under the skin of B6D2F1 mice (Iffa Credo, France) on day 0. After growth of the tumour, the mice were divided into control (18 animals) and treated (6 or 7 animals) groups, which were homogeneous with respect to tumour size. The products were administered twice by the i.v. route on days 12 and 22, at their Maximum Tolerated Dose (MTD), MTD/2 and MTD/4.
The tumours were measured twice a week and the tumour volumes were calculated according to the following formula: volume (mm^3)=length (mm)×[…]/2.
The anti-tumour activity is expressed as % T/C: […]
V0 and Vt being the initial volume of the tumour and its volume at measurement time t, respectively.
The optimum dose is the dose giving the lowest T/C value without toxicity (early death or weight loss greater than 20%).

[2] = system: LNCap human prostate carcinoma; assay: In vitro cytotoxicity, Microculture Tetrazolium Assay, LNCap; assay type: cell-based; details: 4 days incubation, read-out: IC50 (concentration which inhibits proliferation of the treated cells by 50%)
Protocol: (§1) Four cell lines were used: • 1 murine leukaemia: L1210, • 1 human epidermoid carcinoma: KB-3-1, • 1 human colon carcinoma: HT29, • 1 human prostate carcinoma: LNCap.
(§2) The cells are cultured in RPMI 1640 complete culture medium containing 10% foetal calf serum, 2 mM glutamine, 50 units/ml of penicillin, 50 μg/ml of streptomycin and 10 mM Hepes, pH=7.4. The cells are distributed on microplates and are exposed to the cytotoxic compounds. The cells are then incubated for 2 days (L1210) or 4 days (human lines). The number of viable cells is then quantified by a colorimetric assay, the Microculture Tetrazolium Assay (Cancer Res. 1987, 47, 939-942). The results are expressed in terms of the IC50 (the concentration of cytotoxic agent which inhibits proliferation of the treated cells by 50%).

L1210 murine leukaemia = assay: In vitro cytotoxicity, Microculture Tetrazolium Assay, L1210; assay type: cell-based; details: L1210, 2 days incubation; read-out: IC50 (concentration which inhibits proliferation of the treated cells by 50%)
Protocol: as §1, §2

[3] = system: HT29 human colon carcinoma; assay: In vitro cytotoxicity, Microculture Tetrazolium Assay, HT29; assay type: cell-based; details: HT-29, 4 days incubation; read-out: IC50 (concentration which inhibits proliferation of the treated cells by 50%)
Protocol: as §1, §2

[4] = system: KB-3-1 human epidermoid carcinoma; assay: In vitro cytotoxicity, Microculture Tetrazolium Assay, KB-3-1; assay type: cell-based; details: KB-3-1, 4 days incubation; read-out: IC50 (concentration which inhibits proliferation of the treated cells by 50%)
Protocol: as §1, §2

Row | Compound | T/C ([1]; optimum dose of 4 mg/kg) [%] | inhibition of the tumour growth ([1]; optimum dose of 4 mg/kg) [%] | IC50 [2] [nM] | IC50 (L1210 murine leukaemia) [nM] | IC50 [3] [nM] | IC50 [4] [nM] | T/C ([1]; optimum dose of 100 mg/kg) [%]
1 | COc1cc2c(c3c1c(=O)c1c4ccccc4ccc1n3C)[C@@H](OC(C)=O)[C@@H](OC(C)=O)C(C)(C)O2 (racemic) [Example 5, (±)-cis-1,2-Diacetoxy-6-methoxy-3,3,14-trimethyl-1,2,3,14-tetrahydro-7H-benzo[α]pyrano[3,2-h]-acridin-7-one] | 5 | 95 | 570 | 730 | 1180 | 140 | –
2 | COc1cc2c(c3c1c(=O)c1c4ccccc4ccc1n3C)[C@H]1OC(=O)O[C@H]1C(C)(C)O2 (racemic) [Example 6, (±)-cis-7-Methoxy-4,4,15-trimethyl-15,15c-dihydro-4H-benzo[α][1,3]-dioxolo[4′,5′:4,5]pyrano[3,2-h]acridine-2,8[3aH]-dione] | – | – | – | 60 | – | 15 | –
3 | COc1cc2c(c3c1c(=O)c1ccccc1n3C)C=CC(C)(C)O2 [acronycine, reference compound] | – | – | – | – | – | – | 27
